Assay results reported in article PMC6684685, “Evaluation of polydentate picolinic acid chelating ligands and an α-melanocyte-stimulating hormone derivative for targeted alpha therapy using ISOL-produced ^225Ac” (EJNMMI Radiopharmacy and Chemistry, 2019).
Read-outs that look alike come from different tables or passages of the source.

Key:
[1] = Stability of 225Ac complexes in human serum (competition, TLC); type: in vitro ADME; settings: ambient temperature
Experimental: (§1) Varying TLC/iTLC plate systems were selected for different ligands based from results of positive and negative radiolabeling controls: • Method A, for [^225Ac(octapa)]^− and [^225Ac(CHXoctapa)]^−: iTLC-SG plates (Agilent, 2 cm × 10 cm, baseline at 1.5 cm), developed using 10 mM NaOH/9% NaCl solution. Under these conditions free ^225Ac^III remains at the baseline (Rf = 0), while the ^225Ac-ligand complex migrates upwards with the solvent (Rf > 0); or • Method B, for [^225Ac(bispa^2)]^+ and [^225Ac(macropa)]^+: aluminum-backed ultrapure silica gel 60 with 250 μm thickness TLC plates (Fisher, 2 cm × 10 cm, baseline at 1.5 cm), developed using 0.4 M sodium citrate (pH 4) with 10% methanol. Under these conditions free ^225Ac^III migrates with the solvent front (Rf = 1), while ^225Ac-ligand complex remains at the baseline (Rf = 0); (Comba et al. [2017]; Thiele et al. [2017]) or • Method C, for [^225Ac(DOTA)]^−: iTLC-SA plates (Agilent, 2 × 10 cm, baseline at 1.5 cm) and developed using 50 mM EDTA buffer, pH 4. Under these conditions free ^225Ac^III migrates with the solvent front (Rf = 1), while ^225Ac-ligand complex remains at the baseline (Rf = 0); or • Method D, for human serum stability (below): aluminum-backed ultrapure silica gel 60 with 250 um thickness TLC plates (Fisher, 2 cm × 10 cm, baseline at 1.5 cm), developed in 50 mM EDTA, pH 5. Under these conditions, chelate-bound ^225Ac remains at the baseline (Rf = 0), and any ^225Ac^III that has de-complexed from the chelate will travel with the solvent front (Rf = 1). Method D was validated by incubating “free” ^225Ac^III with human serum under analogous conditions to ensure all the activity eluted with the solvent front (Rf ~ 1).
To investigate the stabilities of the ^225Ac-complexes, a competition experiment was performed in the presence of excess human serum and the displacement of radioactivity from the chelator to serum proteins was tracked over the course of seven days. Endogenous metal-binding proteins in serum such as apo-transferrin and metallothionein can compete for and displace chelator-bound metal ions in vivo, preventing successful delivery of the radionuclide to the desired target. The ^225Ac-complexes were prepared using the radiolabeling protocols described above and added to an equal volume (170–180 μL) of human serum (stored at − 5 °C and thawed at ambient temperature). At varying time points (0.5 h to 7 days), small aliquots (1–5 μL) were spotted on iTLC plates using Methods B or D, described above. Representative TLC radio-chromatograms of a serum competition assay with ligand and control are presented in Additional file 1: Figures S2 and S3.

[2] = La(III) exchange competition assay, 50-fold excess La; type: physicochemical; settings: 50-fold excess La^III, ambient temperature
Experimental: as §1
The stability of a radiometal-chelate complex is also often assessed by its ability to withstand transchelation in the presence of excess stable isotopes of the radiometal. Though this is an impossible experiment to perform with Ac since all Ac isotopes are unstable, lanthanum(III) has a similar ionic radius ([…], CN = 6–9) and charge to actinium(III) and is often considered a chemical surrogate to Ac^III. Using non-radioactive metal ions such as La^III as a competitor for ligand complexation is a straightforward method to probe the kinetic off-rate of a pre-formed Ac^III complex, since many ligands that bind Ac^III may also efficiently complex La^III. Herein, ^225Ac-complexes were prepared using the radiolabeling protocols described above and combined with La(NO3)3 (0.1 M, 50 M equivalents compared to the ligand) and allowed to react at ambient temperature. At varying time points (1 h – 7 d), aliquots of the competition reaction mixture (1–5 μL) were spotted on aluminum backed TLC plates and developed using the TLC methods described above.

[3] = human serum, n = 1, ref Thiele et al. [2017], cited from earlier work
[4] = 50-fold excess La^III, ref Thiele et al. [2017], cited from earlier work

SMILES | % Stable ([1]; 1 h) | % Stable ([1]; 4 h) | % Stable ([1]; 1 d) | % Stable ([1]; 2 d) | % Stable ([1]; 3 d) | % Stable ([1]; 4 d) | % Stable ([1]; 7 d) | % Stable ([2]; 5 h) | % Stable ([2]; 1 d) | % Stable ([2]; 2 d) | % Stable ([2]; 7 d) | % Stable ([2]; 1 h) | other results
O=C([O-])CN(Cc1cccc(C(=O)[O-])n1)C1CCCCC1N(CC(=O)[O-])Cc1cccc(C(=O)[O-])n1.[225Ac+3] (centres unmarked) [[^225Ac(CHXoctapa)]^−] | 95.9 ± 1.0% | 96.8 ± 1.7% | 97.0 ± 0.9% | 96.7 ± 1.6% | 96.1 ± 1.5% | 96.7 ± 1.2% | 95.6 ± 1.6% | 81.8 ± 4.3% | 45.7 ± 3.1% | 26.5 ± 8.9% | 3.9 ± 0.6% | – | % Stable ([2]; 3 d): 18.1 ± 0.4%; % Stable ([2]; 6 d): 5.0 ± 0.4%
O=C([O-])CN1CCN(CC(=O)[O-])CCN(CC(=O)[O-])CCN(CC(=O)[O-])CC1.[225Ac+3] [[^225Ac(DOTA)]^−, reference compound] | 93.9 ± 4.5% | 94.4 ± 3.7% | 90.9 ± 5.6% | 91.8 ± 5.6% | – | 91.1 ± 6.1% | 84.7 ± 8.1% | 94.5 ± 3.5% | 94.9 ± 2.9% | 86.2 ± 3.1% | 77.1 ± 3.6% | 95.2 ± 3.3% | % Stable ([1]; 0.5 h): 92.4 ± 4.0%
O=C([O-])c1cccc(CN2CCOCCOCCN(Cc3cccc(C(=O)[O-])n3)CCOCCOCC2)n1.[225Ac+3] [[^225Ac(macropa)]^+] | – | – | – | – | – | – | – | – | – | – | – | – | % Stable ([3]; 0.5 h): 96%; % Stable ([3]; 1 h): 95%; % Stable ([3]; 4 h): 93%; % Stable ([3]; 1 d): 90%; % Stable ([3]; 2 d): 93%; % Stable ([3]; 3 d): 90%; % Stable ([3]; 7 d): 90%; % Stable ([4]; 1 h): 95%; % Stable ([4]; 1 d): 93%; % Stable ([4]; 2 d): 92%; % Stable ([4]; 3 d): 91%; % Stable ([4]; 6 d): 93%; % Stable ([4]; 7 d column (footnote: 8 d time point)): 91^b %; % Stable ([4]; 7 d column (footnote: 8 d time point), listed as [^225Ac(macropa)]^−): 91%
O=C([O-])CN(CCN(CC(=O)[O-])Cc1cccc(C(=O)[O-])n1)Cc1cccc(C(=O)[O-])n1.[225Ac+3] [[^225Ac(octapa)]^−] | 97.9 ± 0.9% | 96.9 ± 1.5% | 94.9 ± 1.2% | 96.1 ± 1.0% | 94.9 ± 1.1% | 95.9 ± 1.9% | 92.9 ± 1.0% | 42.7 ± 0.3% | 4.7 ± 1.5% | 6.1 ± 2.6% | – | 78.9 ± 2.9% | –
O=C([O-])c1cccc(CN(CCN(Cc2cccc(C(=O)[O-])n2)CP(=O)([O-])[O-])CP(=O)([O-])[O-])n1.[225Ac+3] [[^225Ac(phospa)]^3−] | 81.6 ± 1.1% | – | 81.5 ± 0.2% | – | 80.2 ± 1.1% | 76.2 ± 0.1% | 77.1 ± 6.4% | 0% | – | – | – | – | –
